Test results from PMC5855875, “Teixobactin analogues reveal enduracididine to be non-essential for highly potent antibacterial activity and lipid II binding” (Chemical Science, 2017).
In brackets after ≈: the same amount, converted by molar mass. Values belong to the molecule of their own block, whether it stands above or below them. Bridge positions count the residues as written; N and C are the ends. Square brackets hold non-standard residues; d marks the D form. Peptide text beside a SMILES is read from it. d(aIle) = CC[C@H](C)[C@@H](N)C(=O)O; dNMeF = CN[C@H](Cc1ccccc1)C(=O)O

Columns and labels:
MRSA ATCC 33591 = test: microbe, parasite or virus in culture
Protocol: (§1) were grown in Mueller Hinton broth (Oxoid) in triplicate. All incubations were at 37°C. Dilutions were carried out in triplicate. 100 µl of autoclaved Mueller Hinton broth was added to wells 2-12 in a 96-well plate. 200 µl of the peptide was added to well one at a concentration of 256 µg/mL. 100µl of peptide in well one was taken up and pipetted into well two. The mixture was then mixed via pipetting before 100µl was taken up and pipetted into well three. This process was repeated up to well 11. Once […]
(§2) peptide present. Thus, the concentrations (in µg/mL) were: 256, 128, 64, 32, 16, 8, 4, 2, 1, 0.5, 0.25 and no peptide present. Each well was then inoculated with 100µl of bacteria that had been diluted to an […]
(§3) This was repeated three times. The 96-well plates were then incubated at 37°C for 24 hours. The MIC was determined to be the lowest concentration at which there was no growth visible. […]
(§4) was repeated at an altered initial concentration of 64 µg/ml. Therefore, the new concentrations for MIC […]
(§5) VIII. MIC testing (extended panel)
(§6) Bacterial cultures were grown overnight i n Mueller-Hinton Agar (MHA) plates and adjusted to a final concentration of 10 5 – 106 CFU/ml. 100 µl of inoculum in Meuller -Hinton broth (MHB) was mixed with equal volume of peptides (dissolved in MHB) at 2x their concentration in a 96 well plate. In parallel experiments, MIC values were determined in the media containing polysorbate 80 (0 .002%, v/v) to […]

MRSA 1: MRSA ATCC 700699 = test: microbe, parasite or virus in culture; settings: for MIC (with polysorbate 80): MRSA 1, MHB containing polysorbate 80 (0.002%, v/v), two independent duplicates
Protocol: as §5, §6
(§7) prevent non-specific adsorption of the peptides to plastic surfaces. The final peptides concentrations […]
(§8) Positive and negative controls contained 200 µl of inoculum without any peptide dissolved in broth, respectively. The 96 well plates were then incubated at 37 °C for 24 h.
(§9) All the experiments were performed in two independent duplicates and the MIC was determined as the […]
(§10) Minimum bactericidal concentration
(§11) The lowest concentration in which no visible colonies could be detected was taken as the MBC.
(§12) 80. Strain information: MRSA 1: MRSA ATCC 700699, MRSA 2: MRSA DR 42412 (sputum), MRSA
(§13) 3: MRSA DM21455 (eye). […] Staphylococcus aureus ATCC

[1] = system: MRSA 3: MRSA DM21455 (eye); test: microbe, parasite or virus in culture; settings: for MIC (with polysorbate 80): MRSA 3, MHB containing polysorbate 80 (0.002%, v/v)
Protocol: as §5, §6, §7, §8, §9, §10, §11, §12, §13

[2] = system: Staphylococcus aureus ATCC 29213; test: microbe, parasite or virus in culture; settings: for MIC (with polysorbate 80): S. aureus ATCC 29213, MHB containing polysorbate 80 (0.002%, v/v)
Protocol: as §5, §6, §7, §8, §9, §10, §11, §12, §13

[3] = system: MRSA 2: MRSA DR 42412 (sputum); test: microbe, parasite or virus in culture; settings: for MIC (with polysorbate 80): MRSA 2, MHB containing polysorbate 80 (0.002%, v/v), 37 °C, 24 h
Protocol: as §5, §6, §7
(§14) Positive and negative controls contained 200 µl of inoculum without any peptide dissolved in broth, respectively. The 96 well plates were then incubated at 37 °C for 24 h. […]
as §12, §13

VRE 1: VRE ATCC 700802 = test: organism not typed; settings: for MIC (with polysorbate 80): VRE 1, MHB containing polysorbate 80 (0.002%, v/v), 37 °C, 24 h
Protocol: as §5, §6, §7, §14, §12, §13

VRE 2: VRE ATCC 29212 = test: organism not typed; settings: for MIC (with polysorbate 80): VRE 2, MHB containing polysorbate 80 (0.002%, v/v), 37 °C, 24 h
Protocol: as §5, §6, §7, §14, §12, §13

M. smegmatis ATCC 607 = test: microbe, parasite or virus in culture; settings: ATCC 607, 72 h
Protocol: as §1, §2, §3, §4
Middlebrook 7H9 broth (SIGMA) supplemented to 5% Middlebrook ADC (SIGMA) growth

MRSA DM21455 = test: Time-kill kinetics; format: cell-based, Methicillin-resistant Staphylococcus aureus; settings: 0.5 μg mL^–1; MHB containing 0.002% v/v polysorbate 80; 37 °C; average of two independent experiments
Protocol: IX. Time-dependent killing of bacteria by teixobactin analogues 12 and 13 Time-kill kinetics against MRSA DM21455 strains (clinical isolates from patients) was carried out in MHB. Cultures were grown overnight in MHA plates and adjusted to a final inoculum of 10^5 – 10^6 CFU/ml in MHB (containing 0.002% v/v, polysorbate 80) with teixobactin analogues 12 and 13 maintained at a final concentration of 0.5 µg/ml. For vancomycin, the concentration was varied from 0.5 – 16 µg/ml without polysorbate 80. The tubes were then incubated at 37 °C. 100 µl of cell suspension was withdrawn at various time points (0, 2, 4, 8, 24 h), serially diluted (101-105 fold dilutions) and plated onto a MHA plates and incubated for 24 h at 37 °C.
Colonies were then enumerated […]. Colony counting too numerous to count (>300 colonies) was taken as 1010 CFU. Average values from two independent experiments are reported. […]
(also on this page, place not known: polyso rbate vancomycin , concentr ation 80 . wer e µ l (10 1-105 10 10 previously n - TL C three S76: (Ala10-teixobactin) literature.7 Lipid II Lipid II: Compound 8 = 1:1 Lipid II: Compound 16 = 1:1 Lipid II: Compound 8 = 1:2 Lipid II: Compound 16 = 1:2 Lipid II: Compound 8 = 1:4)

MIC (MRSA ATCC 33591; ATCC 33591, 24 h): 0.25 μg mL^–1
MIC (MRSA 1: MRSA ATCC 700699; ATCC 700699, 24 h): 0.25 μg mL^–1
MIC (without polysorbate 80) (MRSA 1: MRSA ATCC 700699; ATCC 700699, 24 h): 2 µg/mL (≈ 1.66 µM)
MIC (with polysorbate 80) (MRSA 1: MRSA ATCC 700699; 37 °C, 24 h): 0.25 µg/mL (≈ 0.208 µM)
MIC ([1]; 3: DM21455 (eye, 24 h)): ≤0.0625 μg mL^–1
MIC (without polysorbate 80) ([1]; 3: DM21455 (eye, 24 h)): 2 µg/mL (≈ 1.66 µM)
MIC (with polysorbate 80) ([1]; 37 °C, 24 h): ≤ 0.0625 µg/mL
MIC ([2]; ATCC 29213, 24 h): ≤0.0625 μg mL^–1
MIC (without polysorbate 80) ([2]; ATCC 29213, 24 h): 1 µg/mL (≈ 0.832 µM)
MIC (with polysorbate 80) ([2]; 37 °C, 24 h): ≤ 0.0625 µg/mL
MIC ([3]; 2: DR 42412 (sputum, 24 h)): ≤0.0625 μg mL^–1
MIC (without polysorbate 80) ([3]; 2: DR 42412 (sputum, 24 h)): 2 µg/mL (≈ 1.66 µM)
MIC (with polysorbate 80) [3]: ≤ 0.0625 µg/mL
MIC (without polysorbate 80) (VRE 1: VRE ATCC 700802; ATCC 700802, 24 h): 1 µg/mL (≈ 0.832 µM)
MIC (with polysorbate 80) (VRE 1: VRE ATCC 700802): ≤ 0.0625 µg/mL
MIC (without polysorbate 80) (VRE 2: VRE ATCC 29212; ATCC 29212, 24 h): 1 µg/mL (≈ 0.832 µM)
MIC (with polysorbate 80) (VRE 2: VRE ATCC 29212): ≤ 0.0625 µg/mL
MIC (M. smegmatis ATCC 607): 0.5 μg mL^–1
Compound: CC[C@H](C)[C@@H]1NC(=O)[C@H](C)NC(=O)[C@H](NC(=O)[C@H](CO)NC(=O)[C@@H](NC(=O)[C@H](NC(=O)[C@@H](CCC(N)=O)NC(=O)[C@H](CO)NC(=O)[C@@H](NC(=O)[C@@H](Cc2ccccc2)NC)[C@@H](C)CC)[C@@H](C)CC)[C@@H](C)CC)[C@H](C)OC(=O)[C@H]([C@@H](C)CC)NC1=O [Compound 12, Ile10-teixobactin] (H-[dNMeF]IS[dQ][d(aIle)]IS[dT]AII; ester 8-C)
MBC (MRSA 1: MRSA ATCC 700699; MRSA 1 (MRSA ATCC 700699), plated on MHA, 37 °C, 24 h): 1 μg mL^–1
MBC ([1]; MRSA 3 (MRSA DM21455), plated on MHA, 37 °C, 24 h): 0.125 μg mL^–1
MBC ([2]; Staphylococcus aureus ATCC 29213, plated on MHA, 37 °C, 24 h): 0.125 μg mL^–1
time to complete bactericidal activity (MRSA DM21455): ≤ 8 h

Compound: CC[C@H](C)[C@H](NC(=O)[C@@H](Cc1ccccc1)NC)C(=O)N[C@@H](CO)C(=O)N[C@H](CCC(N)=O)C(=O)N[C@@H](C(=O)N[C@H](C(=O)N[C@@H](CO)C(=O)N[C@H]1C(=O)N[C@@H](C)C(=O)N[C@@H](CO)C(=O)N[C@@H]([C@@H](C)CC)C(=O)O[C@H]1C)[C@@H](C)CC)[C@@H](C)CC [Compound 14, Ser10-teixobactin] (H-[dNMeF]IS[dQ][d(aIle)]IS[dT]ASI; ester 8-C)
MIC (MRSA ATCC 33591; MRSA ATCC 33591, Mueller Hinton broth (Oxoid), peptides in DMSO containing 0.002% polysorbate 80, 37°C, 24 h, triplicate): 16 μg mL^–1
times lower antibacterial activity than Arg10-teixobactin (MRSA ATCC 33591; from MIC against MRSA ATCC 33591): 8 times

MIC (MRSA ATCC 33591; ATCC 33591, 24 h): 2 μg mL^–1
Compound: CC[C@H](C)[C@H](NC(=O)[C@@H](Cc1ccccc1)NC)C(=O)N[C@@H](CO)C(=O)N[C@H](CCC(N)=O)C(=O)N[C@@H](C(=O)N[C@H](C(=O)N[C@@H](CO)C(=O)N[C@H]1C(=O)N[C@@H](C)C(=O)N[C@@H](Cc2ccccc2)C(=O)N[C@@H]([C@@H](C)CC)C(=O)O[C@H]1C)[C@@H](C)CC)[C@@H](C)CC [Compound 15, Phe10-teixobactin] (H-[dNMeF]IS[dQ][d(aIle)]IS[dT]AFI; ester 8-C)

MIC (with polysorbate 80) (MRSA 1: MRSA ATCC 700699; 37 °C, 24 h): 0.5 µg/mL (≈ 0.309 µM)
MIC (with polysorbate 80) ([1]; 37 °C, 24 h): 0.5 µg/mL (≈ 0.309 µM)
MIC (with polysorbate 80) ([2]; 37 °C, 24 h): 0.25 µg/mL (≈ 0.154 µM)
MIC (with polysorbate 80) [3]: 0.5 µg/mL (≈ 0.309 µM)
MIC (with polysorbate 80) (VRE 1: VRE ATCC 700802): 0.5 µg/mL (≈ 0.309 µM)
MIC (with polysorbate 80) (VRE 2: VRE ATCC 29212): 0.5 µg/mL (≈ 0.309 µM)
Compound: CCCCCCCCCC(=O)N[C@@H](Cc1c[nH]c2ccccc12)C(=O)N[C@H](CC(N)=O)C(=O)N[C@@H](CC(=O)O)C(=O)N[C@@H]1C(=O)NCC(=O)N[C@@H](CCCN)C(=O)N[C@@H](CC(=O)O)C(=O)N[C@H](C)C(=O)N[C@@H](CC(=O)O)C(=O)NCC(=O)N[C@H](CO)C(=O)N[C@@H]([C@H](C)CC(=O)O)C(=O)N[C@@H](CC(=O)c2ccccc2N)C(=O)O[C@@H]1C [Daptomycin, reference compound]
